These results are taken from article PMC11674118, “New High-Affinity Peptide Ligands for Kv1.2 Channel: Selective Blockers and Fluorescent Probes” (Cells, 2024).

Like-named read-outs stand apart in the source and are kept apart here. *1 amine or outer side, *2 acyl side, *3 side chain or, on linkers, in order; H or OH if unused. Where a SMILES comes first, the peptide text is derived from it. Bridges are numbered along the chain shown (N, C = ends). [ ]: non-standard residue; d: D form. The star is where a group is joined. X1 = N=c1ccc2c(-c3ccccc3C(=O)*)c3ccc(N)c(S(=O)(=O)O)c3oc-2c1S(=O)(=O)O; NMeGABA = CN(CCCC(=O)[*:2])[*:1]

Test [1] addresses T1, human Kv1.2 channel, mKate2-Kv1.2(S371T) (K-Kv1.2) (Homo sapiens, UniProt P16389, S371T).
T1 construct: expressed in transfected cells; host or cells: mouse neuroblastoma Neuro2a cells, transient transfection with pmKate2-KCNA2m1
As to the kind of experiment: Binding of fluorescent ligands to K-Kv1.2 on living Neuro2a cells (confocal microscopy, Rav titration). Conditions: concentration dependence of binding. Here is the method: (§1) Cellular organelles were stained as described earlier. To analyze the binding of Kv1.2 with fluorescent ligands, A-HgTx (0.06–2 nM) or HgTx-G (0.06–0.5 nM) was added to cells in a complete medium for 90–120 min. To analyze competitive binding, HgTx-G (0.5 nM) was added to cells together with the studied peptide (0.1–0.8 nM HgTx1; 0.05–0.8 nM MgTx; 5–20 nM ChTx; 50–400 nM AgTx2; 0.05–0.2 nM Ce1; 0.2–5 nM Ce4) in a complete medium for 90–120 min.
(§2) Microscopy was carried out using an SP2 confocal microscope with an HCX PL APO 63×/1.2 objective (Leica Microsystems GmbH, Wetzlar, Germany). The size of the confocal diaphragm corresponded to 1 Airy disk. Typical voxel size was 0.06 × 0.06 × 0.9 µm except for serial ligand binding experiments, where its size was 0.23 × 0.23 × 0.9 µm. […]
(§3) Quantitative analysis of the interaction of fluorescent ligands with Kv1.2 was carried out using Image J software (version 1.48, National Institute of Health, Bethesda, MD, USA) as described earlier. This analysis was based on calculating the ratio of the fluorescent intensities of the bound ligand to the channel (Ri) in each selected region of interest on the plasma membrane for the confocal images of 20–25 measured cells, followed by calculating the average value (Rav) and standard deviation. […]

Test [2] addresses T2, human Kv1.2 channel, mKate2-Kv1.2(S371T, N469L) (K-Kv1.2m2) (Homo sapiens, UniProt P16389, N469L/S371T).
T2 construct: expressed in transfected cells; host or cells: mouse neuroblastoma Neuro2a cells, transient transfection with pmKate2-KCNA2m1m2
Kind of test: Binding of fluorescent ligand to K-Kv1.2m2 on living Neuro2a cells (confocal microscopy, Rav titration). Here is the method:
as §1, §2, §3

The target in test [3] is Kv1.1 channel (K-Kv1.1). The following applies: cited from earlier work. Here is the method:
(§4) Previously, labeling of HgTx1 with fluorophores Cy3, Cy5, Alexa 488, Alexa 546, Alexa 594, Alexa 660, and Alexa 680 was performed at the cysteine residue introduced instead of alanine 19 [23].

Another test deals with T3, Kv1.3 channel (K-Kv1.3) (Homo sapiens, UniProt P22001).
T3 construct: expressed in transfected cells; host or cells: Neuro2a cells; tracer A-HgTx bought from Smartox Biotechnology
T3 sequence (P22001 whole entry): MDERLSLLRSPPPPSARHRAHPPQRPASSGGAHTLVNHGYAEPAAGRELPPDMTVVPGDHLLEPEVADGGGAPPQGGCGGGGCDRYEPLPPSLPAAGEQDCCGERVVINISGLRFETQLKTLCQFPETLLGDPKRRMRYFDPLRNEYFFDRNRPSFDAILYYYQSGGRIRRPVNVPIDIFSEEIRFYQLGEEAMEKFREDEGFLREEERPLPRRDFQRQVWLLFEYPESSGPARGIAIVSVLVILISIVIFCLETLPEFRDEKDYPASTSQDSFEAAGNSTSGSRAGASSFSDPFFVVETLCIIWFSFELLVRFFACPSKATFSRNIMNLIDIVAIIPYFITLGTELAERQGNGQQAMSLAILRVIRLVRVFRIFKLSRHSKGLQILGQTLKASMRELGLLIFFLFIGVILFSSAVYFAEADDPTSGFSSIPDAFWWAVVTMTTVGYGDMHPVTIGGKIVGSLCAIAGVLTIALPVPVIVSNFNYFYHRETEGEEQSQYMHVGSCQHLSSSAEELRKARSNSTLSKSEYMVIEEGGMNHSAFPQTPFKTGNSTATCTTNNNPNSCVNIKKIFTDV
The following applies: cited from earlier work. Here is the method: as §4

Test [4] addresses T4, human Kv1.2 channel (K-Kv1.2) (Homo sapiens, UniProt P16389, S371T).
T4 construct: expressed in transfected cells; host or cells: mouse neuroblastoma Neuro2a cells, transient transfection with pmKate2-KCNA2m1; tracer HgTx-G made in E. coli Rosetta-gami(DE3)pLysS
As to the kind of experiment: Competitive displacement of HgTx-G from complexes with K-Kv1.2 on Neuro2a cells. Conditions: displacement of HgTx-G (0.5 nM), 90-120 min, Cheng-Prusoff, triplicate, mean ± SD, read-out: apparent dissociation constant (Kap), Kv1.2. Format: binding. Here is the method: as §1
Quantitative analysis of the interaction of fluorescent ligands with Kv1.2 was carried out using Image J software (version 1.48, National Institute of Health, Bethesda, MD, USA) as described earlier. This analysis was based on calculating the ratio of the fluorescent intensities of the bound ligand to the channel (Ri) in each selected region of interest on the plasma membrane for the confocal images of 20–25 measured cells, followed by calculating the average value (Rav) and standard deviation.
The peptide concentration (DC50) displacing 50% of the fluorescent ligand from the complex with Kv1.2 was estimated by the dependence of Rav on the concentration (C) of the added peptide at the fixed concentration of the fluorescent ligand:Rav(C)/Rav0 = 1/(1 + C/DC50)(2) […]
The apparent dissociation constant (Kap) of the complex between Kv1.2 and the studied peptide was calculated using the Cheng–Prusoff equation:Kap = DC50/(1 + L/Kd)(3) […]

Test [5] deals with Kv1.1 channel (K-Kv1.1). Conditions: similar analytical system, read-out: Kap, Kv1.1; cited from earlier work. From the text: Table 2 Sequences of Ce1, Ce4, HgTx1, and MgTx peptides and dissociation constants (Kap, nM) of their complexes with Kv1.2, Kv1.1, and Kv1.3 channels. | column: Kap, nM
For another test, the system named is Kv1.2 channels. The following applies: mammalian cells with depolarized membranes; read-out: 50% inhibition of the Rb+ flux through Kv1.2; cited from earlier work. From the text: (§5) Kap of MgTx in our experiments is consistent with the last value.
A further test relates to human Kv1.2 channels. Conditions: patch-clamp, mammalian cells; read-out: 50% decrease of current, human Kv1.2; cited from earlier work.
Description: as §5
(Patch clamp records ionic current or voltage across a cell membrane.)

T2 sequence (P16389 whole entry S371T/N469L): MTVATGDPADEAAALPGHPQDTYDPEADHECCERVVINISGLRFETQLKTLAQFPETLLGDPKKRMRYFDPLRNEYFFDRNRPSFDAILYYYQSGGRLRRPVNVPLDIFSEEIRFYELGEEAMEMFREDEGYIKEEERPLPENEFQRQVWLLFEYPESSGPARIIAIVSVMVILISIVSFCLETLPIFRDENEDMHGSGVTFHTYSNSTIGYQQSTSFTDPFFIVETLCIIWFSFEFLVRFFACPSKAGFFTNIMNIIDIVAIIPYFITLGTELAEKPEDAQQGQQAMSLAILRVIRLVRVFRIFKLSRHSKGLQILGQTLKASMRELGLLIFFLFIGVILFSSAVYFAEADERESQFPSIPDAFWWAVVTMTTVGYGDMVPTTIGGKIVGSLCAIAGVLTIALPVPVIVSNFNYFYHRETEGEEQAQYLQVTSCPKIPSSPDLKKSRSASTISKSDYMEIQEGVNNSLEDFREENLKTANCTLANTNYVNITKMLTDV
T4 sequence (P16389 whole entry S371T): as the sequence (P16389 whole entry S371T/N469L) above, with L469N counted along it
T1 sequence (P16389 whole entry S371T): as the sequence (P16389 whole entry S371T/N469L) above, with L469N counted along it

With `CC[C@H](C)[C@@H]1NC(=O)CNC(=O)[C@H](Cc2ccccc2)NC(=O)[C@H](CCC(N)=O)NC(=O)[C@H](C)NC(=O)[C@H](CCCCN)NC(=O)[C@@H]2CSSC[C@@H](C(=O)N[C@@H](Cc3ccc(O)cc3)C(=O)N3CCC[C@H]3C(=O)N[C@@H](Cc3c[nH]cn3)C(=O)O)NC(=O)[C@H](CCCCN)NC(=O)[C@@H]3CSSC[C@H](NC(=O)[C@H](CCC(N)=O)NC(=O)[C@H](CCCCN)NC(=O)[C@@H]4CCCN4C(=O)[C@H](CO)NC(=O)[C@H]([C@@H](C)O)NC(=O)[C@@H](NC(=O)[C@H](CCCCN)NC(=O)[C@@H](NC(=O)[C@H](CC(=O)O)NC(=O)[C@@H](NC(=O)[C@@H](NC(=O)[C@@H](NC(=O)CCCN(C)C(=O)c4ccccc4-c4c5ccc(=N)c(S(=O)(=O)O)c-5oc5c(S(=O)(=O)O)c(N)ccc45)[C@@H](C)O)C(C)C)[C@@H](C)CC)C(C)C)CSSC[C@H](NC(=O)[C@H](CCCCN)NC(=O)[C@H](C)NC(=O)CNC(=O)[C@H](C)NC(=O)[C@H](CCCNC(=N)N)NC1=O)C(=O)N[C@@H](CCSC)C(=O)N[C@@H](CC(N)=O)C(=O)NCC(=O)N[C@@H](CCCCN)C(=O)N3)C(=O)N[C@@H](CC(C)C)C(=O)N1CCC[C@H]1C(=O)N1CCC[C@H]1C(=O)N2` [A-HgTx] (X1-[NMeGABA]TVIDVKCTSPKQCLPPCKAQFGIRAGAKCMNGKCKCYPH-OH; disulfide 8-30, 14-35, 18-37; C-terminus assumed), the “binding saturation concentration, K-Kv1.2” value in test [1] is recorded as ~ 0.5 nM. The “binding saturation concentration, K-Kv1.2m2” value in test [2] (concentration dependence of binding, Neuro2a cells) is ~ 0.5 nM. For the same compound, the Kd was 0.08 ± 0.02 nM in test [2] (living Neuro2a cells, complete medium, confocal microscopy, triplicate, mean ± SD, SD, read-out: dissociation constant (Kd) of the complex with K-Kv1.2m2); 0.7 ± 0.2 nM at Kv1.1 channel (K-Kv1.1) [3]; 0.3 ± 0.13 nM on Kv1.3 channel (K-Kv1.3).
Consider `CC[C@H](C)[C@@H]1NC(=O)[C@@H]2CSSC[C@@H]3NC(=O)[C@H](CCCCN)NC(=O)[C@H](CCCNC(=N)N)NC(=O)[C@H](CC(N)=O)NC(=O)[C@H](CCSC)NC(=O)[C@H](CSSC[C@H](NC(=O)[C@H](CO)NC(=O)[C@@H](NC(=O)[C@H](CC(N)=O)NC(=O)[C@@H](NC(=O)[C@@H]4CCCN4C(=O)[C@@H](NC(=O)CN)C(C)C)[C@@H](C)CC)C(C)C)C(=O)N[C@@H]([C@@H](C)O)C(=O)NCC(=O)N[C@@H](CO)C(=O)N4CCC[C@H]4C(=O)N[C@@H](CCC(N)=O)C(=O)N2)NC(=O)[C@H](CCCCN)NC(=O)CNC(=O)[C@H](Cc2ccccc2)NC(=O)[C@H](CCCNC(=N)N)NC(=O)[C@H](CCSC)NC(=O)CNC(=O)[C@H](C)NC(=O)[C@H](CC(=O)O)NC(=O)[C@H](CCCCN)NC(=O)[C@H](CSSC[C@@H](C(=O)N[C@H](C(=O)N2CCC[C@H]2C(=O)N[C@@H](CCCCN)C(=O)O)[C@@H](C)O)NC(=O)[C@H](Cc2c[nH]cn2)NC3=O)NC(=O)[C@@H]2CCCN2C(=O)[C@H](CCCCN)NC1=O` [AgTx2], for which the Kd in test [4] amounted to 21.5 ± 1.2 nM.
Regarding `CC[C@H](C)[C@H](NC(=O)[C@@H](N)[C@@H](C)O)C(=O)N[C@H](C(=O)N[C@@H](CC(N)=O)C(=O)N[C@H](C(=O)N[C@@H](CCCCN)C(=O)N[C@H]1CSSC[C@@H]2NC(=O)[C@H](CCCCN)NC(=O)[C@H](C)NC(=O)CNC(=O)[C@H](C)NC(=O)[C@H](CO)NC(=O)[C@H](CCC(N)=O)NC(=O)CNC(=O)[C@H](Cc3ccccc3)NC(=O)[C@H](CCC(N)=O)NC(=O)[C@H](C)NC(=O)[C@H](CCCCN)NC(=O)[C@@H]3CSSC[C@@H](C(=O)N[C@@H](Cc4ccc(O)cc4)C(=O)N4CCC[C@H]4C(=O)N[C@@H](Cc4c[nH]cn4)C(=O)O)NC(=O)[C@H](CCCCN)NC(=O)[C@H](CSSC[C@H](NC(=O)[C@H](CCC(N)=O)NC(=O)[C@H](CCCCN)NC(=O)[C@@H]4CCCN4C(=O)[C@H](CO)NC(=O)[C@H]([C@@H](C)O)NC1=O)C(=O)N[C@@H](CC(C)C)C(=O)N1CCC[C@H]1C(=O)N1CCC[C@H]1C(=O)N3)NC(=O)[C@H](CCCCN)NC(=O)CNC(=O)[C@H](CC(N)=O)NC(=O)[C@H](CCSC)NC2=O)C(C)C)[C@@H](C)CC` [MgTx, margatoxin] (H-TIINVKCTSPKQCLPPCKAQFGQSAGAKCMNGKCKCYPH-OH; disulfide 7-29, 13-34, 17-36 (inferred); N-terminus and C-terminus assumed), on Kv1.1 channel (K-Kv1.1) [5], the Kd is 0.3 ± 0.2 nM. The IC50 in the test with Kv1.2 channels is 0.675 nM; in the test on human Kv1.2 channels, 6 pM.
